Test results reported in US11780845B2 (Relay Therapeutics, Inc., priority 2019, dated 2023).

molecular target: FGFR2 (Homo sapiens (Human), UniProt P21802); assay: FGFR2 Biochemical Caliper Assay
Protocol: Compounds of the present invention were also tested in a FGFR2 Biochemical Caliper Assay. Compounds were prepared in 10 mM DMSO solution and serially diluted into 11 concentrations by 3-fold dilution. […] 5 uL of ATP solution (100 uM) was added to start the reaction and the plate was incubated for 90 minutes, then 70 uL of stopping buffer (0.5M EDTA) was added to terminate the reaction. Each well was analyzed using EZ reader.

FGFR2, sequence (P21802 22-821): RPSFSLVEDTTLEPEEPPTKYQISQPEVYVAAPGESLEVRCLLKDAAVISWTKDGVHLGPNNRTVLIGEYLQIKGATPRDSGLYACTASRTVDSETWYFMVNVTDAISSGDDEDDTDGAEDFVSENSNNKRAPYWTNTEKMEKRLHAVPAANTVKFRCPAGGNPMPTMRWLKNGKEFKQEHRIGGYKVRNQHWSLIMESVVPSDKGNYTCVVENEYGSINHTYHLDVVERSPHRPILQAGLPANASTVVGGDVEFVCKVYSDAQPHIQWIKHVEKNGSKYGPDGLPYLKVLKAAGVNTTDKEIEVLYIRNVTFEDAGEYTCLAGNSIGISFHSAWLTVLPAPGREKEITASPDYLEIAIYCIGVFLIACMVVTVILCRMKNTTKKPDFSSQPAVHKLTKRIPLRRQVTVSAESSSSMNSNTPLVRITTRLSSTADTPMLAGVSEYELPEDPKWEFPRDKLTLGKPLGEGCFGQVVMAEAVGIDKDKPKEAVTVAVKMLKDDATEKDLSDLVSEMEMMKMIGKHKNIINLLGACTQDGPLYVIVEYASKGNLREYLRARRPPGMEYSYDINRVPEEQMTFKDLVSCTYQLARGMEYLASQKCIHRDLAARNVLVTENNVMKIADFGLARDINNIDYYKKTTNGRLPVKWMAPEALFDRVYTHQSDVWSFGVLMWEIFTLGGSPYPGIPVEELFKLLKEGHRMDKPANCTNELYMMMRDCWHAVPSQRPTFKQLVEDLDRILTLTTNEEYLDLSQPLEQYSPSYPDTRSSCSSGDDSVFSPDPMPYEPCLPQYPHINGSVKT

Row | SMILES | IC50 [nM]
1 | C=CC(=O)Nc1ccc(-c2c(-c3ccc(Sc4ncccn4)c(OC)c3)c3c(N)ncnc3n2C)cc1 [Example 82] | < 100
2 | CC#CC(=O)Nc1ccc(-c2c(-c3ccc(Oc4ncccn4)cc3)c3c(N)ncnc3n2C)cc1 [Example 84] | < 100
3 | C=C(C)C(=O)Nc1ccc(-c2c(-c3ccc(S(=O)(=O)N4CCCC4)cc3)c3c(N)ncnc3n2C)cc1 [Example 85] | 100 to 250
4 | C=CC(=O)Nc1ccc(-c2c(-c3ccc(Oc4ncc(N)cn4)c(OC)c3)c3c(N)ncnc3n2C)cc1 [Example 87] | < 100
5 | C=C(C)C(=O)Nc1ccc(-c2c(-c3ccc(Oc4cccc(C)n4)cc3)c3c(N)ncnc3n2C2CCOCC2)cc1 [Example 88] | 100 to 250
6 | C=C(C)C(=O)Nc1ccc(-c2c(-c3ccc(Oc4cccc(C)n4)cc3)c3c(N)ncnc3n2CCN2CCN(C)CC2)cc1 [Example 89] | < 100
7 | C=C(C)C(=O)Nc1ccc(-c2c(-c3ccc(Oc4cnc(C)cn4)c(F)c3)c3c(N)ncnc3n2C)cc1 [Example 92] | 1000 to 100000
8 | C=C(C)C(=O)Nc1ccc(-c2c(-c3ccc(C(O)c4ncccn4)c(OC)c3)c3c(N)ncnc3n2C)cc1 (stereo not shown) [Example 93] | 250 to 1000
9 | C=C(C)C(=O)Nc1ccc(-c2c(-c3ccc(Oc4ccc(Cl)cn4)cc3)c3c(N)ncnc3n2C)cc1 [Example 97] | 250 to 1000
10 | C=CC(=O)Nc1ccc(-c2c(C3CCN(C)CC3)c3c(N)ncnc3n2C)cc1 [Example 99] | 1000 to 100000
11 | C=C(C)C(=O)Nc1ccc(-c2c(-c3ccc(Oc4ncc(Cl)cn4)c(OC)c3)c3c(N)ncnc3n2C)cc1 [Example 102] | 100 to 250
12 | C=CC(=O)Nc1ccc(-c2c(C3CCN(C(=O)CNC(=O)NC)CC3)c3c(N)ncnc3n2C)cc1 [Example 104] | 1000 to 100000
13 | C=CC(=O)Nc1ccc(-c2c(C3CCN(C(=O)C(C)CCNC)CC3)c3c(N)ncnc3n2C)cc1 (stereo not shown) [Example 105] | 250 to 1000
14 | C=C(C)C(=O)Nc1ccc(-c2c(-c3ccc(Cc4ncccn4)c(OC)c3)c3c(N)ncnc3n2C)cc1 [Example 106] | 1000 to 100000
15 | C=C(C)C(=O)Nc1ccc(-c2c(-c3cc(F)c(Oc4ccccn4)c(F)c3)c3c(N)ncnc3n2C)cc1 [Example 107] | 250 to 1000
16 | C=C(C)C(=O)Nc1ccc(-c2c(-c3ccc(Oc4ccc(C)cn4)c(O)c3)c3c(N)ncnc3n2C)cc1 [Example 108] | 1000 to 100000
17 | C=C(C)C(=O)Nc1ccc(-c2c(-c3ccc(Oc4ncc(F)cn4)c(C)c3)c3c(N)ncnc3n2C)cc1 [Example 109] | 100 to 250
18 | C=C(C)C(=O)Nc1ccc(-c2c(-c3ccc(Oc4ccc(F)cn4)c(O)c3)c3c(N)ncnc3n2C)cc1 [Example 111] | 1000 to 100000
19 | C=C(C)C(=O)Nc1ccc(-c2c(-c3ccc(Oc4ccc(F)nc4)c(O)c3)c3c(N)ncnc3n2C)cc1 [Example 112] | 1000 to 100000
20 | C=C(C)C(=O)Nc1ccc(-c2c(-c3ccc(Oc4ncc(Cl)cn4)c(F)c3)c3c(N)ncnc3n2C)cc1 [Example 115] | 250 to 1000
21 | C=C(C)C(=O)Nc1ccc(-c2c(-c3cc(F)c(Oc4cnccn4)c(F)c3)c3c(N)ncnc3n2C)cc1 [Example 118] | 1000 to 100000
22 | C=C(C)C(=O)Nc1ccc(-c2c(-c3ccc(Oc4ccc(Cl)cn4)c(O)c3)c3c(N)ncnc3n2C)cc1 [Example 119] | 1000 to 100000
23 | C=C(C)C(=O)Nc1ccc(-c2c(-c3ccc(Oc4ccc(Cl)c(C)n4)cc3)c3c(N)ncnc3n2C)cc1 [Example 122] | 250 to 1000
24 | C=C(C)C(=O)Nc1ccc(-c2c(-c3ccc(OCC(=O)O)cc3)c3c(N)ncnc3n2C)cc1 [Example 124] | 1000 to 100000

Row | SMILES | IC50 [nM]
25 | C=C(C)C(=O)Nc1ccc(-c2c(-c3ccc4c(c3)CC(=O)N4)c3c(N)ncnc3n2C)cc1 [Example 125] | 1000 to 100000
26 | C=C(C)C(=O)Nc1ccc(-c2c(-c3cnn(Cc4cccnc4)c3)c3c(N)ncnc3n2C)cc1 [Example 126] | 1000 to 100000
27 | C=C(C)C(=O)Nc1ccc(-c2c(-c3cc(N)c(Oc4ccccn4)c(F)c3)c3c(N)ncnc3n2C)cc1 [Example 127] | 100 to 250
28 | C=C(C)C(=O)Nc1ccc(-c2c(-c3cc(C)c(Oc4ccccn4)c(O)c3)c3c(N)ncnc3n2C)cc1 [Example 129] | 250 to 1000
29 | C=C(C)C(=O)Nc1ccc(-c2c(-c3ccc(CC(=O)N(C)C)cc3)c3c(N)ncnc3n2C)cc1 [Example 130] | 1000 to 100000
30 | C=C(C)C(=O)Nc1ccc(-c2c(-c3ccc(N(C)C)nc3)c3c(N)ncnc3n2C)cc1 [Example 131] | 1000 to 100000
31 | C=C(C)C(=O)Nc1ccc(-c2c(-c3ccc(-c4nnn(C)n4)nc3)c3c(N)ncnc3n2C)cc1 [Example 132] | 1000 to 100000
32 | C=C(C)C(=O)Nc1ccc(-c2c(-c3ccc(OCC4CC4)cc3)c3c(N)ncnc3n2C)cc1 [Example 133] | 100 to 250
33 | C=C(C)C(=O)Nc1ccc(-c2c(-c3cncc(CO)c3)c3c(N)ncnc3n2C)cc1 [Example 134] | 1000 to 100000
34 | C=C(C)C(=O)Nc1ccc(-c2c(C3=CCCN(C(C)=O)C3)c3c(N)ncnc3n2C)cc1 [Example 136] | 1000 to 100000
35 | C=C(C)C(=O)Nc1ccc(-c2c(-c3ccc(OCc4ccccc4)nc3)c3c(N)ncnc3n2C)cc1 [Example 138] | 1000 to 100000
36 | C=C(C)C(=O)Nc1ccc(-c2c(-c3cc(OC)ncc3F)c3c(N)ncnc3n2C)cc1 [Example 139] | 1000 to 100000
37 | C=C(C)C(=O)Nc1ccc(-c2c(-c3ccc(C(=O)N4CCC(F)(F)CC4)cc3)c3c(N)ncnc3n2C)cc1 [Example 142] | 1000 to 100000
38 | C=C(C)C(=O)Nc1ccc(-c2c(-c3cc(OC)ncc3OC)c3c(N)ncnc3n2C)cc1 [Example 144] | 1000 to 100000
39 | C=C(C)C(=O)Nc1ccc(-c2c(-c3ccc(CN4CC[C@@H](O)C4)cc3)c3c(N)ncnc3n2C)cc1 [Example 146] | 1000 to 100000
40 | C=C(C)C(=O)Nc1ccc(-c2c(-c3ccc4c(c3)CCC(=O)N4)c3c(N)ncnc3n2C)cc1 [Example 147] | 1000 to 100000
41 | C=C(C)C(=O)Nc1ccc(-c2c(-c3ccc(-c4ncc[nH]4)cc3)c3c(N)ncnc3n2C)cc1 [Example 149] | 250 to 1000
42 | C=CC(=O)Nc1ccc(-c2c(-c3cnn(CC4CCNCC4)c3)c3c(N)ncnc3n2C)cc1 [Example 151] | 250 to 1000
43 | C=C(C)C(=O)Nc1ccc(-c2c(-c3ccn4ccnc4c3)c3c(N)ncnc3n2C)cc1 [Example 153] | 1000 to 100000
44 | C=C(C)C(=O)Nc1ccc(-c2c(-c3ccc(Cn4cc(C)cn4)c(F)c3)c3c(N)ncnc3n2C)cc1 [Example 158] | 1000 to 100000
45 | C=C(C)C(=O)Nc1ccc(-c2c(-c3ccc(CN4CCC(F)(F)CC4)c(F)c3)c3c(N)ncnc3n2C)cc1 [Example 159] | 1000 to 100000
46 | C=C(C)C(=O)Nc1ccc(-c2c(-c3cc(O)c(Oc4ccccn4)c(Cl)c3)c3c(N)ncnc3n2C)cc1 [Example 162] | 250 to 1000
47 | C=C(C)C(=O)Nc1ccc(-c2c(-c3cnn(C4CN(C)C4)c3)c3c(N)ncnc3n2C)cc1 [Example 163] | 1000 to 100000
48 | C=C(C)C(=O)Nc1ccc(-c2c(-c3ccc4cn(C)nc4c3)c3c(N)ncnc3n2C)cc1 [Example 164] | 100 to 250

Row | SMILES | IC50 [nM]
49 | C=C(C)C(=O)Nc1ccc(-c2c(-c3ccc(-n4cc(C)cn4)nc3)c3c(N)ncnc3n2C)cc1 [Example 165] | 250 to 1000
50 | C=C(C)C(=O)Nc1ccc(-c2c(C3=CC4CCC(C3)N4)c3c(N)ncnc3n2C)cc1 (stereo not shown) [Example 168] | 100 to 250
51 | C=C(C)C(=O)Nc1ccc(-c2c(-c3ccc4c(cnn4C(C)C)c3)c3c(N)ncnc3n2C)cc1 [Example 170] | 250 to 1000
52 | C=C(C)C(=O)Nc1ccc(-c2c(-c3ccc(CN4CCN(C)CC4)cc3)c3c(N)ncnc3n2C)cc1 [Example 172] | 1000 to 100000
53 | C=C(C)C(=O)Nc1ccc(-c2c(-c3ccc(CC(=O)N(C)C)c(F)c3)c3c(N)ncnc3n2C)cc1 [Example 173] | 1000 to 100000
54 | C=C(C)C(=O)Nc1ccc(-c2c(-c3ccc4c(c3)OCCN4C)c3c(N)ncnc3n2C)cc1 [Example 175] | < 100
55 | C=C(C)C(=O)Nc1ccc(-c2c(-c3ccc(N)c(OC(F)(F)F)c3)c3c(N)ncnc3n2C)cc1 [Example 177] | 1000 to 100000
56 | C=C(C)C(=O)Nc1ccc(-c2c(-c3ccc(-c4nccs4)cc3)c3c(N)ncnc3n2C)cc1 [Example 178] | 250 to 1000
57 | C=C(C)C(=O)Nc1ccc(-c2c(-c3cnn(Cc4ccncc4)c3)c3c(N)ncnc3n2C)cc1 [Example 179] | 1000 to 100000
58 | C=C(C)C(=O)Nc1ccc(-c2c(-c3ccc(S(C)(=O)=O)cc3C)c3c(N)ncnc3n2C)cc1 [Example 181] | 1000 to 100000
59 | C=C(C)C(=O)Nc1ccc(-c2c(-c3ccc(=O)n(Cc4ccccc4)c3)c3c(N)ncnc3n2C)cc1 [Example 182] | 1000 to 100000
60 | C=C(C)C(=O)Nc1ccc(-c2c(-c3cccc(C(=O)N4CCCC4)c3)c3c(N)ncnc3n2C)cc1 [Example 183] | 1000 to 100000
61 | C=C(C)C(=O)Nc1ccc(-c2c(-c3ccc(-n4cncn4)nc3)c3c(N)ncnc3n2C)cc1 [Example 184] | 1000 to 100000
62 | C=C(C)C(=O)Nc1ccc(-c2c(-c3ccc4[nH]c(C(=O)O)cc4c3)c3c(N)ncnc3n2C)cc1 [Example 185] | 1000 to 100000
63 | C=C(C)C(=O)Nc1ccc(-c2c(-c3ccc(OC4CCN(C)CC4)nc3)c3c(N)ncnc3n2C)cc1 [Example 187] | 1000 to 100000
64 | C=C(C)C(=O)Nc1ccc(-c2c(-c3ccc4c(c3)CCC4C(=O)N(C)C)c3c(N)ncnc3n2C)cc1 (stereo not shown) [Example 191] | 1000 to 100000
65 | C=C(C)C(=O)Nc1ccc(-c2c(-c3ccc(-n4cccn4)nc3)c3c(N)ncnc3n2C)cc1 [Example 192] | 1000 to 100000
66 | C=C(C)C(=O)Nc1ccc(-c2c(-c3ccc4c(c3)CS(=O)(=O)C4)c3c(N)ncnc3n2C)cc1 [Example 193] | 1000 to 100000
67 | C=C(C)C(=O)Nc1ccc(-c2c(-c3ccc(OCC)c(OCC)c3)c3c(N)ncnc3n2C)cc1 [Example 196] | 1000 to 100000
68 | C=C(C)C(=O)Nc1ccc(-c2c(-c3ccc(CN(C)C(C)=O)cc3)c3c(N)ncnc3n2C)cc1 [Example 198] | 1000 to 100000
69 | C=C(C)C(=O)Nc1ccc(-c2c(-c3cc(O)c(Oc4ncccn4)c(CC)c3)c3c(N)ncnc3n2C)cc1 [Example 200] | 1000 to 100000
70 | C=C(C)C(=O)Nc1ccc(-c2c(-c3ccc4[nH]c(=O)n(C)c4c3)c3c(N)ncnc3n2C)cc1 [Example 203] | 1000 to 100000
